# Results taken from ChEMBL document CHEMBL1146079, “Inhibition of human acetyl- and butyrylcholinesterase by novel carbamates of (-)- and (+)-tetrahydrofurobenzofuran and methanobenzodioxepine” (J Med Chem, 2006).
# How the values were obtained:
# [1] = target: Cholinesterase (Homo sapiens, UniProt P06276)
# Description: Anticholinesterase activity against human plasma BChE
# [2] = target: Acetylcholinesterase (Homo sapiens, UniProt P22303)
# Chain of Acetylcholinesterase (P22303 whole entry): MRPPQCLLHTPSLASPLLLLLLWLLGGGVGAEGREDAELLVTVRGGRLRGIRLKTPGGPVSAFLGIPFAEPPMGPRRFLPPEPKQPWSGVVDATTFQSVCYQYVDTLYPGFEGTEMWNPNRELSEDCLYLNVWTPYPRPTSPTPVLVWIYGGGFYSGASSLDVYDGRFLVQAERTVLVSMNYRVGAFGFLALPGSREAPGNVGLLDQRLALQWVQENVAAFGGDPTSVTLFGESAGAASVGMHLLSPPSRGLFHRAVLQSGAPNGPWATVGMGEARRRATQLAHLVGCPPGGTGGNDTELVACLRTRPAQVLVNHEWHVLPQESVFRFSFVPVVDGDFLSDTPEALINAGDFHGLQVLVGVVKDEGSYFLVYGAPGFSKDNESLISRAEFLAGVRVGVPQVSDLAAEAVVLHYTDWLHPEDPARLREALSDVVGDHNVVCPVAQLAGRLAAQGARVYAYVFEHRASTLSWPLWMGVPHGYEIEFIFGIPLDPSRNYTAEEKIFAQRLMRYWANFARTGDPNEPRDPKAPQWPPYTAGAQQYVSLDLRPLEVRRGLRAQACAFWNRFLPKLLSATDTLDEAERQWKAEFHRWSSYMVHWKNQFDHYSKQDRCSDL
# Description: Anticholinesterase activity against human erythrocyte AChE
# Chain of Cholinesterase (P06276 whole entry): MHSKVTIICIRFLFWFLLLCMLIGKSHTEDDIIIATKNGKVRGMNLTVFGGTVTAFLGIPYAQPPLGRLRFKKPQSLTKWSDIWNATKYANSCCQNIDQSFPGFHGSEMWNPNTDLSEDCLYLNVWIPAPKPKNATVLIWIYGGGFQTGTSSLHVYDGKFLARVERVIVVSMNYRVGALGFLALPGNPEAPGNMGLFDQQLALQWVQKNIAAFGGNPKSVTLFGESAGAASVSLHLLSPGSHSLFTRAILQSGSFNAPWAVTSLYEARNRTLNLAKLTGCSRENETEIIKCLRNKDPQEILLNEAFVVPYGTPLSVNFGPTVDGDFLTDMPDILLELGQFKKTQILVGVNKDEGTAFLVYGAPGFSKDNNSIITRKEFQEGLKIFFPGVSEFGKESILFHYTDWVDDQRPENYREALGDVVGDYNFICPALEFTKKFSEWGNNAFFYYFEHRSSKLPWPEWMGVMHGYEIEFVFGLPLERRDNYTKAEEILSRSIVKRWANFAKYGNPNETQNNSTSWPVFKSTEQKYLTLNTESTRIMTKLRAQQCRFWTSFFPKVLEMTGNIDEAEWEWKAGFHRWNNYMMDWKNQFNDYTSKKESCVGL
SMILES,IC50 [1],IC50 [2]
CC(C)c1ccc(NC(=O)Oc2ccc3c(c2)[C@@]2(C)CO[C@H](C2)O3)cc1,15 nM,–
CCNC(=O)Oc1ccc2c(c1)[C@]1(C)CCO[C@@H]1O2,3 nM,100 nM
CNC(=O)Oc1ccc2c(c1)[C@]1(C)CCO[C@@H]1N2C,4 nM,–
CC(C)c1ccc(NC(=O)Oc2ccc3c(c2)[C@]2(C)CO[C@@H](C2)O3)cc1,54 nM,3430 nM
Cc1ccccc1NC(=O)Oc1ccc2c(c1)[C@@]1(C)CCO[C@H]1N2C,5100 nM,142 nM
CCNC(=O)Oc1ccc2c(c1)[C@]1(C)CCN(C)[C@@H]1N2C,4 nM,94 nM
CC(C)c1ccc(NC(=O)Oc2ccc3c(c2)[C@@]2(C)CCO[C@H]2N3C)cc1,23 nM,–
CNC(=O)Oc1ccc2c(c1)[C@@]1(C)CCO[C@H]1N2C,56 nM,56 nM
CCNC(=O)Oc1ccc2c(c1)[C@]1(C)CO[C@@H](C1)O2,120 nM,2420 nM
Cc1ccccc1NC(=O)Oc1ccc2c(c1)[C@@]1(C)CCO[C@H]1O2,36400 nM,–
CC(C)c1ccc(NC(=O)Oc2ccc3c(c2)[C@@]2(C)CCO[C@H]2O3)cc1,40 nM,–
CC(C)c1ccc(NC(=O)Oc2ccc3c(c2)[C@]2(C)CCO[C@@H]2O3)cc1,13 nM,–
Cc1ccccc1NC(=O)Oc1ccc2c(c1)[C@]1(C)CO[C@@H](C1)O2,–,97 nM
CCNC(=O)Oc1ccc2c(c1)[C@@]1(C)CCO[C@H]1O2,28 nM,486 nM
Cc1ccccc1NC(=O)Oc1ccc2c(c1)[C@@]1(C)CO[C@H](C1)O2,52000 nM,38 nM
CCNC(=O)Oc1ccc2c(c1)[C@@]1(C)CO[C@H](C1)O2,23 nM,610 nM
Cc1ccccc1NC(=O)Oc1ccc2c(c1)[C@@]1(C)CCN(C)[C@H]1N2C,–,5510 nM
CCNC(=O)Oc1ccc2c(c1)[C@]1(C)CCO[C@@H]1N2C,2 nM,82 nM
CC(C)c1ccc(NC(=O)Oc2ccc3c(c2)[C@]2(C)CCO[C@@H]2N3C)cc1,17 nM,3860 nM
Cc1ccccc1NC(=O)Oc1ccc2c(c1)[C@]1(C)CCO[C@@H]1O2,11400 nM,–
